# Measured values published in ChEMBL document CHEMBL1201862, “PubChem BioAssay data set” (2004).
#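 Interpolation was linear, between the two tested concentrations surrounding the appropriate level; five concentrations were tested over 48 hours in 96-well plates. Abbreviation: GI50, concentration required for 50% inhibition of growth.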 Calls of active or inactive are those of the source. Rule as the data show it: active = GI50 up to about 1.1 µM and inactive = higher.
# Experiments:
# Experiment in all cases: NCI anticancer screen, dose series, 48 h
# 786-0 = test system: 786-0
# A498 = test system: A498
# A549 = test system: A549
# ACHN = test system: ACHN
# CAKI-1 = test system: CAKI-1
# CCRF-CEM = test system: CCRF-CEM
# COLO 205 = test system: COLO 205
# DLD-1 = test system: DLD-1
# DMS-114 = test system: DMS-114
# DMS-273 = test system: DMS-273
# EKVX = test system: EKVX
# HCC 2998 = test system: HCC 2998
# HCT-116 = test system: HCT-116
# HCT-15 = test system: HCT-15
# HL-60 = test system: HL-60
# HOP-18 = test system: HOP-18
# HOP-62 = test system: HOP-62
# HOP-92 = test system: HOP-92
# HT-29 = test system: HT-29
# IGROV-1 = test system: IGROV-1
# K562 = test system: K562
# KM-20L2 = test system: KM-20L2
# KM12 = test system: KM12
# LOX IMVI = test system: LOX IMVI
# LXFL 529 = test system: LXFL 529
# M14 = test system: M14
# M19-MEL = test system: M19-MEL
# MOLT-4 = test system: MOLT-4
# Malme-3M = test system: Malme-3M
# NCI-H226 = test system: NCI-H226
# NCI-H23 = test system: NCI-H23
# NCI-H460 = test system: NCI-H460
# NCI-H522 = test system: NCI-H522
# OVCAR-3 = test system: OVCAR-3
# OVCAR-4 = test system: OVCAR-4
# OVCAR-5 = test system: OVCAR-5
# OVCAR-8 = test system: OVCAR-8
# RPMI-8226 = test system: RPMI-8226
# RXF 393 = test system: RXF 393
# RXF 631 = test system: RXF 631
# SF-268 = test system: SF-268
# SF-295 = test system: SF-295
# SF-539 = test system: SF-539
# SK-MEL-28 = test system: SK-MEL-28
# SK-MEL-2 = test system: SK-MEL-2
# SK-MEL-5 = test system: SK-MEL-5
# SK-OV-3 = test system: SK-OV-3
# SN12C = test system: SN12C
# SNB-19 = test system: SNB-19
# SNB-75 = test system: SNB-75
# SNB-78 = test system: SNB-78
# SR = test system: SR
# SW-620 = test system: SW-620
# TK-10 = test system: TK-10
# U-251 = test system: U-251
# UACC-257 = test system: UACC-257
# UACC-62 = test system: UACC-62
# UO-31 = test system: UO-31
structure (smiles),measurement,setting,value
Nc1ccccc1C(=O)/C=C/c1c(O)ccc2ccccc12,GI50,786-0,> 100 µM (inactive)
same,GI50,A498,> 100 µM (inactive)
same,GI50,A549,> 100 µM (inactive)
same,GI50,ACHN,> 100 µM (inactive)
same,GI50,CAKI-1,> 100 µM (inactive)
same,GI50,CCRF-CEM,> 100 µM (inactive)
same,GI50,COLO 205,> 100 µM (inactive)
same,GI50,DLD-1,> 100 µM (inactive)
same,GI50,DMS-114,> 100 µM (inactive)
same,GI50,DMS-273,> 100 µM (inactive)
same,GI50,EKVX,> 100 µM (inactive)
same,GI50,HCC 2998,> 100 µM (inactive)
same,GI50,HCT-116,> 100 µM (inactive)
same,GI50,HCT-15,> 100 µM
same,GI50,HL-60,> 100 µM (inactive)
same,GI50,HOP-18,> 100 µM (inactive)
same,GI50,HOP-62,> 100 µM (inactive)
same,GI50,HOP-92,> 100 µM (inactive)
same,GI50,HT-29,> 100 µM (inactive)
same,GI50,IGROV-1,> 100 µM (inactive)
same,GI50,K562,> 100 µM (inactive)
same,GI50,KM-20L2,> 100 µM (inactive)
same,GI50,KM12,> 100 µM (inactive)
same,GI50,LOX IMVI,19.2 µM (inactive)
same,GI50,LXFL 529,> 100 µM (inactive)
same,GI50,M14,> 100 µM (inactive)
same,GI50,M19-MEL,19.4 µM (inactive)
same,GI50,MOLT-4,> 100 µM (inactive)
same,GI50,Malme-3M,> 100 µM (inactive)
same,GI50,NCI-H226,> 100 µM (inactive)
same,GI50,NCI-H23,> 100 µM (inactive)
same,GI50,NCI-H460,> 100 µM (inactive)
same,GI50,NCI-H522,> 100 µM (inactive)
same,GI50,OVCAR-3,> 100 µM (inactive)
same,GI50,OVCAR-4,> 100 µM (inactive)
same,GI50,OVCAR-5,> 100 µM (inactive)
same,GI50,OVCAR-8,> 100 µM (inactive)
same,GI50,RPMI-8226,> 100 µM (inactive)
same,GI50,RXF 393,> 100 µM (inactive)
same,GI50,RXF 631,> 100 µM (inactive)
same,GI50,SF-268,> 100 µM (inactive)
same,GI50,SF-295,> 100 µM (inactive)
same,GI50,SF-539,> 100 µM (inactive)
same,GI50,SK-MEL-28,> 100 µM (inactive)
same,GI50,SK-MEL-2,> 100 µM (inactive)
same,GI50,SK-MEL-5,> 100 µM (inactive)
same,GI50,SK-OV-3,> 100 µM (inactive)
same,GI50,SN12C,32.7 µM (inactive)
same,GI50,SNB-19,> 100 µM (inactive)
same,GI50,SNB-75,> 100 µM (inactive)
same,GI50,SNB-78,> 100 µM (inactive)
same,GI50,SR,> 100 µM (inactive)
same,GI50,SW-620,> 100 µM (inactive)
same,GI50,TK-10,> 100 µM (inactive)
same,GI50,U-251,> 100 µM (inactive)
same,GI50,UACC-257,> 100 µM (inactive)
same,GI50,UACC-62,> 100 µM (inactive)
same,GI50,UO-31,> 100 µM (inactive)
